Results as given in ChEMBL document CHEMBL3596103, “Synthesis of novel amide functionalized 2H-chromene derivatives by Ritter amidation of primary alcohol using HBF4·OEt2 as a mild and versatile reagent and evaluation of their antimicrobial and anti-biofilm activities” (Bioorg Med Chem Lett, 2015).
In brackets after ≈: the same amount, converted by molar mass.

What was measured:
Micrococcus luteus [1] = experiment: Antimicrobial activity against Micrococcus luteus MTCC 2470 incubated for 24 hrs at 37 degC by well diffusion method; type: functional; settings: MTCC 2470, 24 h
Candida albicans = experiment: Antimicrobial activity against Candida albicans MTCC 3017 incubated for 24 hrs at 30 degC by well diffusion method; type: functional; settings: MTCC 3017, 24 h
Bacillus subtilis [2] = experiment: Antimicrobial activity against Bacillus subtilis MTCC 121 incubated for 24 hrs at 37 degC by well diffusion method; type: functional; settings: MTCC 121, 24 h
Pseudomonas aeruginosa = experiment: Antimicrobial activity against Pseudomonas aeruginosa MTCC 2453 incubated for 24 hrs at 37 degC by well diffusion method; type: functional; settings: MTCC 2453, 24 h
Escherichia coli [3] = experiment: Antimicrobial activity against Escherichia coli MTCC 739 incubated for 24 hrs at 37 degC by well diffusion method; type: functional; settings: MTCC 739, 24 h
Staphylococcus aureus [4] = experiment: Antimicrobial activity against Staphylococcus aureus MLS16 MTCC 2940 incubated for 24 hrs at 37 degC by well diffusion method; type: functional; settings: MLS16 MTCC 2940, 24 h
Raoultella planticola [5] = experiment: Antimicrobial activity against Klebsiella planticola MTCC 530 incubated for 24 hrs at 37 degC by well diffusion method; type: functional; settings: MTCC 530, 24 h
Micrococcus luteus [6] = experiment: Bactericidal activity against Micrococcus luteus MTCC 2470 incubated for 24 hrs at 37 degC; type: functional; settings: MTCC 2470, 24 h
Staphylococcus aureus [7] = experiment: Bactericidal activity against Staphylococcus aureus MLS16 MTCC 2940 incubated for 24 hrs at 37 degC; type: functional; settings: MLS16 MTCC 2940, 24 h
Bacillus subtilis [8] = experiment: Bactericidal activity against Bacillus subtilis MTCC 121 incubated for 24 hrs at 37 degC; type: functional; settings: MTCC 121, 24 h
Micrococcus luteus [9] = experiment: Inhibition of bio-film formation of Micrococcus luteus MTCC 2470 incubated for 24 hrs at 37 degC under static conditions by crystal violet staining method; type: functional, organism-based; settings: MTCC 2470, 24 h
Raoultella planticola [10] = experiment: Bactericidal activity against Klebsiella planticola MTCC 530 incubated for 24 hrs at 37 degC; type: functional; settings: MTCC 530, 24 h
Escherichia coli [11] = experiment: Bactericidal activity against Escherichia coli MTCC 739 incubated for 24 hrs at 37 degC; type: functional; settings: MTCC 739, 24 h
Staphylococcus aureus [12] = experiment: Inhibition of bio-film formation of Staphylococcus aureus MLS16 MTCC 2940 incubated for 24 hrs at 37 degC under static conditions by crystal violet staining method; type: functional, organism-based; settings: MLS16 MTCC 2940, 24 h
Bacillus subtilis [13] = experiment: Inhibition of bio-film formation of Bacillus subtilis MTCC 121 incubated for 24 hrs at 37 degC under static conditions by crystal violet staining method; type: functional, organism-based; settings: MTCC 121, 24 h
Escherichia coli [14] = experiment: Inhibition of bio-film formation of Escherichia coli MTCC 739 incubated for 24 hrs at 37 degC under static conditions by crystal violet staining method; type: functional, organism-based; settings: MTCC 739, 24 h
Raoultella planticola [15] = experiment: Inhibition of bio-film formation of Klebsiella planticola MTCC 530 incubated for 24 hrs at 37 degC under static conditions by crystal violet staining method; type: functional, organism-based; settings: MTCC 530, 24 h

SMILES	MIC (Micrococcus luteus [1])	MIC (Candida albicans)	MIC (Bacillus subtilis [2])	MIC (Pseudomonas aeruginosa) [µg/mL]	MIC (Escherichia coli [3])	MIC (Staphylococcus aureus [4])	MIC (Raoultella planticola [5])	MBC (Micrococcus luteus [6]) [µM]	MBC (Staphylococcus aureus [7]) [µM]	MBC (Bacillus subtilis [8]) [µM]	IC50 (Micrococcus luteus [9]) [µM]	MBC (Raoultella planticola [10]) [µM]	MBC (Escherichia coli [11]) [µM]	IC50 (Staphylococcus aureus [12]) [µM]	IC50 (Bacillus subtilis [13]) [µM]	IC50 (Escherichia coli [14]) [µM]	IC50 (Raoultella planticola [15]) [µM]
O=C(CCCCBr)NCC1=Cc2cc(Br)ccc2OC1(O)C(F)(F)F (stereo not drawn)	> 125 µg/mL	> 125 µg/mL	> 125 µg/mL	> 125	> 125 µg/mL	> 125 µg/mL	> 125 µg/mL										
O=C(Cc1ccccc1)NCC1=Cc2cc(Br)ccc2OC1(O)C(F)(F)F (stereo not drawn)	> 125 µg/mL	> 125 µg/mL	> 125 µg/mL	> 125	> 125 µg/mL	33.6 µM	33.6 µM	33.6 (≈ 14.9 µg/mL)	67.2 (≈ 29.7 µg/mL)	> 230	19.1	> 230	> 230	21.9			
O=C(CBr)NCC1=Cc2ccccc2OC1(O)C(F)(F)F (stereo not drawn)	19.1 µM	> 125 µg/mL	9.5 µM	> 125	19.1 µM	9.5 µM	19.1 µM	38.3 (≈ 14 µg/mL)	19.1 (≈ 6.99 µg/mL)	19.1 (≈ 6.99 µg/mL)	8.3	19.1 (≈ 6.99 µg/mL)	38.3 (≈ 14 µg/mL)	3.6	5.1	10.5	12.7
O=C(CCCCBr)NCC1=Cc2ccccc2OC1(O)C(F)(F)F (stereo not drawn)	> 125 µg/mL	> 125 µg/mL	> 125 µg/mL	> 125	> 125 µg/mL	> 125 µg/mL	> 125 µg/mL										
O=C(Cc1cccc(Cl)c1)NCC1=Cc2cc(Br)ccc2OC1(O)C(F)(F)F (stereo not drawn)	31.2 µM	> 125 µg/mL	31.2 µM	> 125	15.6 µM	15.6 µM	31.2 µM	74.2 (≈ 35.4 µg/mL)	37.1 (≈ 17.7 µg/mL)	74.2 (≈ 35.4 µg/mL)	18.4	74.2 (≈ 35.4 µg/mL)	37.1 (≈ 17.7 µg/mL)	9.2	22.2	8.2	24.6
O=C(Cc1ccccc1)NCC1=Cc2ccccc2OC1(O)C(F)(F)F (stereo not drawn)	> 125 µg/mL	> 125 µg/mL	> 125 µg/mL	> 125	> 125 µg/mL	> 125 µg/mL	> 125 µg/mL										
O=C(Cc1cccc(Cl)c1)NCC1=Cc2ccccc2OC1(O)C(F)(F)F (stereo not drawn)	> 125 µg/mL	> 125 µg/mL	74.2 µM	> 125	> 125 µg/mL	37.1 µM	37.1 µM	74.2 (≈ 29.5 µg/mL)	37.1 (≈ 14.8 µg/mL)	74.2 (≈ 29.5 µg/mL)	17.1	> 230	> 230	19.7	43.8		
Clc1ccc(COC(Cn2ccnc2)c2ccc(Cl)cc2Cl)c(Cl)c1 (stereo not drawn) [MICONAZOLE]	> 125 µg/mL	18.7 µM	> 125 µg/mL	> 125	> 125 µg/mL	> 125 µg/mL	> 125 µg/mL										
CC(=O)NCC1=Cc2cc(Br)ccc2OC1(O)C(F)(F)F (stereo not drawn)	> 125 µg/mL	> 125 µg/mL	> 125 µg/mL	> 125	> 125 µg/mL	> 125 µg/mL	> 125 µg/mL										
